Assay results taken from ChEMBL document CHEMBL4229543, “Squaramides as novel class I and IIB histone deacetylase inhibitors for topical treatment of cutaneous t-cell lymphoma” (Bioorg Med Chem Lett, 2018).
Values after ≈ are worked out from the molar mass of the structure shown.

System: not listed separately
Test: Clearance in human hepatocytes assessed per million cells at 1 uM after 5 to 90 mins by LC-MS/MS analysis
Type: ADME, cell-based, Hepatocyte
Details: read-out: CLH

hepatocyte CLint at 1 µM [µL/min/1e6 cells]	SMILES
< 5	CC(Nc1c(NCCCCCC(=O)NO)c(=O)c1=O)C12CC3CC(CC(C3)C1)C2 (centres undefined)
< 4.7	COc1ccc(Nc2c(NCCCCCC(=O)NO)c(=O)c2=O)cc1
29	CC(C)(CCCCC(=O)NO)Nc1c(Nc2ccc(C(F)(F)F)cc2)c(=O)c1=O

System: not listed separately
Test: Solubility in pH 7.4 phosphate buffer solution at 100 uM after 24 hrs by HPLC method
Type: physicochemical
Details: phosphate buffer, pH 7.4

solubility at 24 h, 100 µM [µM]	SMILES
24 (≈ 9.68 µg/mL)	CC(Nc1c(NCCCCCC(=O)NO)c(=O)c1=O)C12CC3CC(CC(C3)C1)C2 (centres undefined)
3.3 (≈ 1.15 µg/mL)	COc1ccc(Nc2c(NCCCCCC(=O)NO)c(=O)c2=O)cc1
36 (≈ 14.9 µg/mL)	CC(C)(CCCCC(=O)NO)Nc1c(Nc2ccc(C(F)(F)F)cc2)c(=O)c1=O

Biological target: Histone deacetylase 2 (Homo sapiens, UniProt Q92769)
Sequence (Q92769 whole entry): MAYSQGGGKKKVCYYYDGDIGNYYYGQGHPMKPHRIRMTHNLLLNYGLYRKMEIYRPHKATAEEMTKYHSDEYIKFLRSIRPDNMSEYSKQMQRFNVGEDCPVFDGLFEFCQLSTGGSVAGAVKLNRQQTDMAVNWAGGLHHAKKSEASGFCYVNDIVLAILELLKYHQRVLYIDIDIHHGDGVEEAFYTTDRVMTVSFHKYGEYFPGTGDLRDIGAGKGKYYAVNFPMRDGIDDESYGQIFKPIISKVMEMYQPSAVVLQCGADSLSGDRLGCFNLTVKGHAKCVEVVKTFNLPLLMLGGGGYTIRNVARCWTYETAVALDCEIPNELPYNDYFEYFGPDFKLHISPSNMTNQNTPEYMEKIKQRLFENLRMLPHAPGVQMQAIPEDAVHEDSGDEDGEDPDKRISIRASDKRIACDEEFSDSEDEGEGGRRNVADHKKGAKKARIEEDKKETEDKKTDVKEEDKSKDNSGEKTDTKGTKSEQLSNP
Test: Inhibition of human recombinant HDAC2 using fluorogenic HDAC substrate after 15 mins by fluorimetrc method
Details: not given

Ki [µM]	SMILES
0.13	CC(Nc1c(NCCCCCC(=O)NO)c(=O)c1=O)C12CC3CC(CC(C3)C1)C2 (centres undefined)
0.0031	COc1ccc(Nc2c(NCCCCCC(=O)NO)c(=O)c2=O)cc1
0.023	CC(C)(CCCCC(=O)NO)Nc1c(Nc2ccc(C(F)(F)F)cc2)c(=O)c1=O

Biological target: Histone deacetylase 5 (Homo sapiens, UniProt Q9UQL6)
Sequence (Q9UQL6 whole entry): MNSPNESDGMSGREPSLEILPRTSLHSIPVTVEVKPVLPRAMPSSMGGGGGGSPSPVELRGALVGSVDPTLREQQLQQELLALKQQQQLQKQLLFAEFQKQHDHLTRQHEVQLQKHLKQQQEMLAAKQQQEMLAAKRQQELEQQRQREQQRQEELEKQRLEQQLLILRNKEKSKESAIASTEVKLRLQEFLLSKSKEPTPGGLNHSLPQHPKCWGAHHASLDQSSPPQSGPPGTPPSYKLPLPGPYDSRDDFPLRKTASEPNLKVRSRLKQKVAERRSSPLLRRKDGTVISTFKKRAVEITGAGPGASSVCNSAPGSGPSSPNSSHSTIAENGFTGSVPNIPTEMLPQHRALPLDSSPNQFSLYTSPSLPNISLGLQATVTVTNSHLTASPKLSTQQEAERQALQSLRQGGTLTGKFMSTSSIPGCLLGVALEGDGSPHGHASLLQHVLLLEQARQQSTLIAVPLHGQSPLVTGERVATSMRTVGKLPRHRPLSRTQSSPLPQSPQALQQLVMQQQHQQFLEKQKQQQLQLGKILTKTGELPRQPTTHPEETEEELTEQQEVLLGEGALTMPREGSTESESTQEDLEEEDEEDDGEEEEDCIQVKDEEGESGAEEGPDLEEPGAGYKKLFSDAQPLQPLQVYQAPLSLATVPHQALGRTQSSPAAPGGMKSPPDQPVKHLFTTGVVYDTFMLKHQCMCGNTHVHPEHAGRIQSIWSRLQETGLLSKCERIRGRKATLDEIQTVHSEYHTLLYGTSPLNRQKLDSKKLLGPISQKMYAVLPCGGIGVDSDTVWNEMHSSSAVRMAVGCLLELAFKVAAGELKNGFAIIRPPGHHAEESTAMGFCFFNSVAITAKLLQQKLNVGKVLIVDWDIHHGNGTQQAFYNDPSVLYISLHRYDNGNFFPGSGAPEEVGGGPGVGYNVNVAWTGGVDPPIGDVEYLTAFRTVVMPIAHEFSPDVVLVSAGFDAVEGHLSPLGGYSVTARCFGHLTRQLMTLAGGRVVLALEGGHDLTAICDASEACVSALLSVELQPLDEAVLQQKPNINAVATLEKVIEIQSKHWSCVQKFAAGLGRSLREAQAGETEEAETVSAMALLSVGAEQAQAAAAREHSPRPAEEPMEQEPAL
Test: Inhibition of human recombinant HDAC5 using fluorogenic HDAC substrate class 2a after 30 mins by fluorimetrc method
Details: not given

Ki [µM]	SMILES
4.2	CC(Nc1c(NCCCCCC(=O)NO)c(=O)c1=O)C12CC3CC(CC(C3)C1)C2 (centres undefined)
1	COc1ccc(Nc2c(NCCCCCC(=O)NO)c(=O)c2=O)cc1
0.36	CC(C)(CCCCC(=O)NO)Nc1c(Nc2ccc(C(F)(F)F)cc2)c(=O)c1=O

Biological target: T1, Histone deacetylase 7 (Homo sapiens, UniProt Q8WUI4)
T1 sequence (Q8WUI4 whole entry): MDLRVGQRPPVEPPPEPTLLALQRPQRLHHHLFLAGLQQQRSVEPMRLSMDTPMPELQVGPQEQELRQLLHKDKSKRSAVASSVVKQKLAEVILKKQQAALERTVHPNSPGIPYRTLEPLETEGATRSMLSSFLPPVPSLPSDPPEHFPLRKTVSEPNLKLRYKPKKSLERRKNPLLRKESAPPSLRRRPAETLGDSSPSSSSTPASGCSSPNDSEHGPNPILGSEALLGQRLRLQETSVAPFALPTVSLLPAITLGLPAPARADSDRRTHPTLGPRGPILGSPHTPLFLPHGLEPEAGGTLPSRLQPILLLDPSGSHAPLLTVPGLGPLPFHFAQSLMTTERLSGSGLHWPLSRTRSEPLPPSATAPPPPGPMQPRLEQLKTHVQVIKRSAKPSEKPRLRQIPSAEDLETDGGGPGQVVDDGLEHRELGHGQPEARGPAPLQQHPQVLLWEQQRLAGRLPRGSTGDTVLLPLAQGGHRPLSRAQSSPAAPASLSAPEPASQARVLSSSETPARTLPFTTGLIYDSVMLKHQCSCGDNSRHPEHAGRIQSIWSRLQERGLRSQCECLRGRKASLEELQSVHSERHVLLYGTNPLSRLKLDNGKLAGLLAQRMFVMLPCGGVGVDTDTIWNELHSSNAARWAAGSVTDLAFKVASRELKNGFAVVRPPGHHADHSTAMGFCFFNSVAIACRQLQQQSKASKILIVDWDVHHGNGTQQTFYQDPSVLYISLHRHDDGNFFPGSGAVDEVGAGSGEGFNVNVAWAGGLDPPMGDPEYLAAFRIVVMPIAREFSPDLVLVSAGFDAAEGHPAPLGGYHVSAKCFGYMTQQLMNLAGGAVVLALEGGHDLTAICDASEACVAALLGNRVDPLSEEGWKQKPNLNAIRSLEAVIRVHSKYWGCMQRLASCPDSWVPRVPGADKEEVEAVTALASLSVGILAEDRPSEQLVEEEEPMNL
Test: Inhibition of human recombinant HDAC7 using fluorogenic HDAC substrate class 2a after 45 mins by fluorimetrc method
Details: not given

Ki [µM]	SMILES
> 10	CC(Nc1c(NCCCCCC(=O)NO)c(=O)c1=O)C12CC3CC(CC(C3)C1)C2 (centres undefined)
> 10	COc1ccc(Nc2c(NCCCCCC(=O)NO)c(=O)c2=O)cc1
1.7	CC(C)(CCCCC(=O)NO)Nc1c(Nc2ccc(C(F)(F)F)cc2)c(=O)c1=O

Biological target: T2, Polyamine deacetylase HDAC10 (Homo sapiens, UniProt Q969S8)
T2 sequence (Q969S8 whole entry): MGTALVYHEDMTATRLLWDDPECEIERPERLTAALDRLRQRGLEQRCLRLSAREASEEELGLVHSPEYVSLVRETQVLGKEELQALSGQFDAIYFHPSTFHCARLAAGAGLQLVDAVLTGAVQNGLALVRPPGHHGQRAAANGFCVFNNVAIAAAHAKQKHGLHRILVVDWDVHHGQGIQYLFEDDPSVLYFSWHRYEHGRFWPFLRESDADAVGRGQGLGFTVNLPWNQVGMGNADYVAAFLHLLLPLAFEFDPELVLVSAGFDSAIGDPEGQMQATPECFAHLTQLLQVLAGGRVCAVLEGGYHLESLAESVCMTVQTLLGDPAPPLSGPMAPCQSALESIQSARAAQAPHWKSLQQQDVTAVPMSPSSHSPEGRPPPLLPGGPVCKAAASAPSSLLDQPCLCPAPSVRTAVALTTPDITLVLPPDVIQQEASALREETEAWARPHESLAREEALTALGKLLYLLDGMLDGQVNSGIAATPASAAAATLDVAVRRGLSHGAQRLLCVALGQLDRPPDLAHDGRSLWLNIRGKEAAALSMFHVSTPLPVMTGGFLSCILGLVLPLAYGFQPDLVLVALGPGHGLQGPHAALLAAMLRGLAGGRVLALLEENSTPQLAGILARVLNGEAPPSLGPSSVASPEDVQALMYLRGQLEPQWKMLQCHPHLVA
Test: Inhibition of human recombinant HDAC10 using fluorogenic HDAC substrate after 45 mins by fluorimetrc method
Details: not given

Ki [µM]	SMILES
0.05	CC(Nc1c(NCCCCCC(=O)NO)c(=O)c1=O)C12CC3CC(CC(C3)C1)C2 (centres undefined)
0.0012	COc1ccc(Nc2c(NCCCCCC(=O)NO)c(=O)c2=O)cc1
0.003	CC(C)(CCCCC(=O)NO)Nc1c(Nc2ccc(C(F)(F)F)cc2)c(=O)c1=O

Biological target: T3, NAD-dependent protein deacetylase sirtuin-2 (Homo sapiens, UniProt Q8IXJ6)
T3 sequence (Q8IXJ6 whole entry): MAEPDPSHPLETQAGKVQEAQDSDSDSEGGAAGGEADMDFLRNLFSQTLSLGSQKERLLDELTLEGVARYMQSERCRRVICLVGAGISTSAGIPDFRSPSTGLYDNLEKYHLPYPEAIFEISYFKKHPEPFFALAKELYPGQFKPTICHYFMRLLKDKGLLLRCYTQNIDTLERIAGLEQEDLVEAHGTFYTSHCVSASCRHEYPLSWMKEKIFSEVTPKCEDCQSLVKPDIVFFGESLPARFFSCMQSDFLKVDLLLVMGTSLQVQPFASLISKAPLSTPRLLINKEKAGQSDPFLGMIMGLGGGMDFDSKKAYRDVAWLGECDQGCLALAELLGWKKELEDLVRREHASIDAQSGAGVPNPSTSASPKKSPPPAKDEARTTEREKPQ
Test: Inhibition of human recombinant SIRT2 using fluoro-lysine sirtuin 2 deacetylase substrate after 60 mins by fluorimetrc method
Details: not given

Ki [µM]	SMILES
> 10	CC(Nc1c(NCCCCCC(=O)NO)c(=O)c1=O)C12CC3CC(CC(C3)C1)C2 (centres undefined)
> 10	COc1ccc(Nc2c(NCCCCCC(=O)NO)c(=O)c2=O)cc1
> 10	CC(C)(CCCCC(=O)NO)Nc1c(Nc2ccc(C(F)(F)F)cc2)c(=O)c1=O

Biological target: T4, NAD-dependent protein deacetylase sirtuin-3, mitochondrial (Homo sapiens, UniProt Q9NTG7)
T4 sequence (Q9NTG7 whole entry): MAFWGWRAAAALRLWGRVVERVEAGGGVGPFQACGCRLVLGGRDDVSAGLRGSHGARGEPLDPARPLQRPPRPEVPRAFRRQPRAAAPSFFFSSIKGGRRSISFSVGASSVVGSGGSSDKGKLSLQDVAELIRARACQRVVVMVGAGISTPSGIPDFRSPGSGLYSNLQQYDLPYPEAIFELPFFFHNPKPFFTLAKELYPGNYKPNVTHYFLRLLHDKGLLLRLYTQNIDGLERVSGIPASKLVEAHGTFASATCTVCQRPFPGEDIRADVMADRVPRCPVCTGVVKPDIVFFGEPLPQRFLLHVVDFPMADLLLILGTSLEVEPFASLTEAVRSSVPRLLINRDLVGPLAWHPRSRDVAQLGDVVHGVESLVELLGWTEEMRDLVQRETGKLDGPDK
Test: Inhibition of human recombinant SIRT3 using fluoro-lysine sirtuin 2 deacetylase substrate after 45 mins by fluorimetrc method
Details: not given

Ki [µM]	SMILES
> 10	CC(Nc1c(NCCCCCC(=O)NO)c(=O)c1=O)C12CC3CC(CC(C3)C1)C2 (centres undefined)
> 10	COc1ccc(Nc2c(NCCCCCC(=O)NO)c(=O)c2=O)cc1
> 10	CC(C)(CCCCC(=O)NO)Nc1c(Nc2ccc(C(F)(F)F)cc2)c(=O)c1=O
